Measured values reported in US4126606A, “Physiologically active peptides and a process for preparation thereof” (Zaidan Hojin Biseibutsu Kagaku Kenkyu Kai, priority 1976, dated 1978).

test: ID50 determination of amastatin preparations (inhibitory activity); type: biochemical

| Substance | ID50 [mg/L] |
| --- | --- |
| N-acetyl amastatin A2 | 450 |
| amastatin A1 | 0.65 |
| amastatin A2 | 0.54 |
| amastatin A2 dimethyl ester | 17 |
| amastatin A3 | 1.0 |
| amastatin B2 | 1.0 |
| amastatin RB1 | 1.50 |
| hydrochloric acid salt of amastatin A1 [HCl A1] | 0.75 |
